In patent US10968231B2, “Substituted cyclyl-acetic acid derivatives for the treatment of metabolic disorders” (TAKEDA PHARMACEUTICAL COMPANY LIMITED, priority 2017, dated 2021):

Target: T1, human GPR40 (Homo sapiens, UniProt O14842)
T1 construct: expressed in transfected cells
Assay: Evaluation of human GPR40 agonist activity with increase in intracellular Ca2+ concentration as an index (FLIPR)
Type: cell-based
Settings: test compound at final concentration of 1 μM; CHO(dhfr−) cells stably expressing human GPR40; 100% = activity of 10 μM of compound of WO 2015/020184 Example 153, 0% = DMSO
Description: Evaluation of Human GPR40 Agonist Activity with Increase in Intracellular Ca^2+ Concentration as an Index
CHO(dhfr−) cells that stably expressed human GPR40 were suspended in MEMα (Wako Pure Chemical Industries, Ltd.) containing 10% dialyzed serum (Thermo Fisher Scientific), 10 mM HEPES (Thermo Fisher Scientific), 100 U/mL penicillin, 100 μg/mL streptomycin (Wako Pure Chemical Industries, Ltd.), and plated on a 384 well black/clear cell culture plate at 10,000 cells/well. After culture overnight in a CO2 incubator at 37° C., the culture supernatant was removed, and loading buffer [Ca^2+ probe attached to Calcium Kit II-iCellux (DOJINDO) was dissolved in assay buffer (20 mM HEPES, 0.1% fatty acid-free BSA (Wako Pure Chemical Industries, Ltd.), 2.5 mM probenecid (DOJINDO)-containing HBSS (Thermo Fisher Scientific))] was added at 30 μL/well. After leaving for 1 hr at room temperature under light shielding, assay buffer containing the test compound at a final concentration of 1 μM was added at 10 μL/well in fluorescence plate reader FLIPR Tetra (Molecular Devices), and the fluorescence amount was successively measured. Human GPR40 agonist activity was calculated using an increase in the intracellular Ca^2+ concentration as an index, wherein the activity of 10 μM of the compound of WO 2015/020184 (Example 153: 3-cyclopropyl-3-(2-((1-(2-((2-fluoro-2-methylpropyl)(4-methylpyridin-2-yl)carbamoyl)-5-methoxyphenyl)piperidin-4-yl)methoxy)pyridin-4-yl)propanoic acid) was 100%, and the activity when DMSO was added instead of the test compound was 0%.

T1 sequence (O14842 whole entry): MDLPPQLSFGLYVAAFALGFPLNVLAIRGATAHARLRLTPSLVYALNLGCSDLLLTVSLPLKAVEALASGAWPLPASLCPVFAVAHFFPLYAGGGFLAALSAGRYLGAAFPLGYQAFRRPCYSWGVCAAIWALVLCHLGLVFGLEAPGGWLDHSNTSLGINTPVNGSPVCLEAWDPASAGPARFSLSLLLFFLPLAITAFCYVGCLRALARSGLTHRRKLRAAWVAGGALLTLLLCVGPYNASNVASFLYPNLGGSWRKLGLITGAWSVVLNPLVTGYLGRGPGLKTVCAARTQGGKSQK

Row | SMILES | activity (human GPR40 agonist activity)
1 | COc1cc(N2CCC(COc3cc4c(cn3)CCC4CC(=O)O)CC2)c(OCC(F)(F)C(F)(F)F)cn1 (stereo not shown) [Example 3, (3-((1-(2-methoxy-5-(2,2,3,3,3-pentafluoropropoxy)pyridin-4-yl)piperidin-4-yl)methoxy)-6,7-dihydro-5H-cyclopenta[c]pyridin-5-yl)acetic acid] | 109%
2 | COc1ccc(C2CCN(CC(F)(F)F)CC2)c(N2CCC(COc3cc4c(cn3)CCC4CC(=O)O)CC2)c1 (stereo not shown) [Example 4, (3-((1-(5-methoxy-2-(1-(2,2,2-trifluoroethyl)piperidin-4-yl)phenyl)piperidin-4-yl)methoxy)-6,7-dihydro-5H-cyclopenta[c]pyridin-5-yl)acetic acid] | 108%
3 | COc1ccc(C2CCN(CC(F)(F)F)CC2)c(N2CCC(COc3cc4c(cn3)OCCC4CC(=O)O)CC2)c1 (stereo not shown) [Example 36, (6-((1-(5-methoxy-2-(1-(2,2,2-trifluoroethyl)piperidin-4-yl)phenyl)piperidin-4-yl)methoxy)-3,4-dihydro-2H-pyrano[2,3-c]pyridin-4-yl)acetic acid] | 110%
4 | COc1ccc(CCC(F)(F)F)c(N2CCC(COc3cc4c(cn3)OCCC4CC(=O)O)CC2)c1 (stereo not shown) [Example 18, (6-((1-(5-methoxy-2-(3,3,3-trifluoropropyl)phenyl)piperidin-4-yl)methoxy)-3,4-dihydro-2H-pyrano[2,3-c]pyridin-4-yl)acetic acid] | 41%
5 | COc1cc(N2CCC(COc3cc4c(cn3)OCCC4CC(=O)O)CC2)c(C2CCN(CC(F)(F)F)CC2)cn1 (single isomer, unassigned) [Example 6, (6-((1-(2-methoxy-5-(1-(2,2,2-trifluoroethyl)piperidin-4-yl)pyridin-4-yl)piperidin-4-yl)methoxy)-3,4-dihydro-2H-pyrano[2,3-c]pyridin-4-yl)acetic acid] | 59%
6 | COc1cc(N2CCC(COc3cc4c(cn3)OCCC4CC(=O)O)CC2)c(OCC(F)(F)C(F)(F)F)cn1 (stereo not shown) [Example 17, (6-((1-(2-methoxy-5-(2,2,3,3,3-pentafluoropropoxy)pyridin-4-yl)piperidin-4-yl)methoxy)-3,4-dihydro-2H-pyrano[2,3-c]pyridin-4-yl)acetic acid] | 58%
7 | COc1ccc(CCC(F)(F)F)c(N2CCC(COc3cc4c(cn3)OCCC4CC(=O)O)CC2)c1 (stereo not shown) [Example 8, (6-((1-(5-methoxy-2-(3,3,3-trifluoropropyl)phenyl)piperidin-4-yl)methoxy)-3,4-dihydro-2H-pyrano[2,3-c]pyridin-4-yl)acetic acid] | 103%
8 | COc1cc(N2CCC(COc3cc4c(cn3)OCCC4CC(=O)O)CC2)c(OCC(F)(F)C(F)(F)F)cn1 (stereo not shown) [Example 11, (6-((1-(2-methoxy-5-(2,2,3,3,3-pentafluoropropoxy)pyridin-4-yl)piperidin-4-yl)methoxy)-3,4-dihydro-2H-pyrano[2,3-c]pyridin-4-yl)acetic acid] | 107%
9 | COc1ccc(CCC(F)(F)F)c(N2CCC(COc3cc4c(cn3)OCCC4CC(=O)O)CC2)c1 (stereo not shown) [Example 1, (6-((1-(5-methoxy-2-(3,3,3-trifluoropropyl)phenyl)piperidin-4-yl)methoxy)-3,4-dihydro-2H-pyrano[2,3-c]pyridin-4-yl)acetic acid] | 107%
10 | COc1cc(N2CCC(COc3cc4c(cn3)OCCC4CC(=O)O)CC2)c(C2CCN(CC(F)(F)F)CC2)cn1 (single isomer, unassigned) [Example 5, (6-((1-(2-methoxy-5-(1-(2,2,2-trifluoroethyl)piperidin-4-yl)pyridin-4-yl)piperidin-4-yl)methoxy)-3,4-dihydro-2H-pyrano[2,3-c]pyridin-4-yl)acetic acid] | 111%
11 | COc1cc(N2CCC(COc3cc4c(cn3)OCCC4CC(=O)O)CC2)c(OCC(F)(F)C(F)(F)F)cn1 (stereo not shown) [Example 2, (6-((1-(2-methoxy-5-(2,2,3,3,3-pentafluoropropoxy)pyridin-4-yl)piperidin-4-yl)methoxy)-3,4-dihydro-2H-pyrano[2,3-c]pyridin-4-yl)acetic acid] | 108%
12 | COc1ccc(C2CCN(CC(F)(F)F)CC2)c(N2CCC(COc3cc4c(cn3)OCCC4CC(=O)O)CC2)c1 (stereo not shown) [Example 9, (6-((1-(5-methoxy-2-(1-(2,2,2-trifluoroethyl)piperidin-4-yl)phenyl)piperidin-4-yl)methoxy)-3,4-dihydro-2H-pyrano[2,3-c]pyridin-4-yl)acetic acid] | 104%
13 | COc1ccc(C2CCN(CC(F)(F)F)CC2)c(N2CCC(COc3cc4c(cn3)OCCC4CC(=O)O)CC2)c1 (stereo not shown) [Example 28, (6-((1-(5-methoxy-2-(1-(2,2,2-trifluoroethyl)piperidin-4-yl)phenyl)piperidin-4-yl)methoxy)-3,4-dihydro-2H-pyrano[2,3-c]pyridin-4-yl)acetic acid] | 54%
14 | COc1cc(N2CCC(COc3cc4c(cn3)OCCC4CC(=O)O)CC2)c(C2CCN(CC(F)(F)F)CC2)cn1 (single isomer, unassigned) [Example 7, (6-((1-(2-methoxy-5-(1-(2,2,2-trifluoroethyl)piperidin-4-yl)pyridin-4-yl)piperidin-4-yl)methoxy)-3,4-dihydro-2H-pyrano[2,3-c]pyridin-4-yl)acetic acid] | 107%
15 | COc1ccc(C2CCN(CC(F)(F)F)CC2)c(N2CCC(COc3cc4c(cn3)CCC4CC(=O)O)CC2)c1 (stereo not shown) [Example 10, (3-((1-(5-methoxy-2-(1-(2,2,2-trifluoroethyl)piperidin-4-yl)phenyl)piperidin-4-yl)methoxy)-6,7-dihydro-5H-cyclopenta[c]pyridin-5-yl)acetic acid] | 105%
16 | COc1ccc(C2CCN(CC(F)(F)F)CC2)c(N2CCC(COc3cc4c(cn3)CCC4CC(=O)O)CC2)c1 (stereo not shown) [Example 29, (3-((1-(5-methoxy-2-(1-(2,2,2-trifluoroethyl)piperidin-4-yl)phenyl)piperidin-4-yl)methoxy)-6,7-dihydro-5H-cyclopenta[c]pyridin-5-yl)acetic acid] | 65%
